Laboratory results as given in patent publication US20120058997A1, “IMIDAZO[1,2-B]PYRIDAZINE AND PYRAZOLO[1,5-A]PYRIMIDINE DERIVATIVES AND THEIR USE AS PROTEIN KINASE INHIBITORS” (SuperGen, Inc., priority 2006, published 2012).
Where “and” joins values, the source holds several entries; their conditions need not be identical. Identical values can stand only once. Like-named read-outs stand apart in the source and are kept apart here.

Experiments:
PC-3 Cells = experiment: Cell growth inhibition, Cell-Titer-Glo, 96 hours; assay type: cell-based;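 further: luciferase luminescence reflecting cellular ATP, used as a proxy for cell number, with compound-treated cells compared against DMSO vehicle control wells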
Pim-1 kinase = Pim-1 kinase (Homo sapiens, UniProt P11309); experiment: Promega Kinase-Glo Pim-1 kinase inhibition assay; assay type: biochemical;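 further: in vitro Pim-1 reaction run 2 h at 30 °C, then leftover ATP measured by luciferase luminescence, where signal falls as kinase activity rises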
K562 Cells = experiment: Cell growth inhibition, Cell-Titer-Glo, 96 hours; assay type: cell-based;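 further: luminescent ATP signal as an index of viable cell number, drug-treated versus cells given an equal volume of DMSO vehicle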
[1] = Homo sapiens, Table IX (results), read-out: IC50 (PC-3)
[2] = Table VIII (results), values in uM, read-out: IC50(Kinase)
[3] = Homo sapiens, K562, Table IX (results), read-out: IC50 (K562)
[4] = Table VIII (results), values in nM, read-out: IC50(Kinase)
[5] = Table IX (results), read-out: IC50 (K562)
[6] = Homo sapiens, read-out: IC50 PC-3 Cells (inhibit cell growth to 50% of untreated), Table VI
[7] = IC50 (Kinase inhibitory activity), Table V, Pim-1 kinase, Kinase-Glo
[8] = Homo sapiens, K562, read-out: IC50 K562 Cells (inhibit cell growth to 50% of untreated), Table VI

Sequence of Pim-1 kinase (P11309 whole entry): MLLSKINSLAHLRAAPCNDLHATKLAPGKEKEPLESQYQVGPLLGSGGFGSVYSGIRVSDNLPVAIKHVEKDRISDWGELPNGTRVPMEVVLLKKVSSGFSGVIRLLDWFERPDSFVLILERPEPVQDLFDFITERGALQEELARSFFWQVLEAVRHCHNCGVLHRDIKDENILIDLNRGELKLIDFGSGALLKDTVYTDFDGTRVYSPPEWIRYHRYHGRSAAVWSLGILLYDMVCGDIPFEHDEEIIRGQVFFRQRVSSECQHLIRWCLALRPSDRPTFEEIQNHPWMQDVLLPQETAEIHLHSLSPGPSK

SMILES	IC50 (PC-3 Cells; [1]) [µM]	IC50 (K562 Cells; [3]) [µM]	IC50 (Pim-1 kinase; [4])	further results
Fc1cccc(-c2cnc3ccc(NC4CCCC4)nn23)c1 [Compound 7-15, N-cyclopentyl-3-(3-fluorophenyl)imidazo[1,2-b]pyridazin-6-amine]	70.2	20.8		IC50 (Pim-1 kinase; [2]): 5.35 µM
FC(F)(F)Oc1cccc(-c2cnc3ccc(NCCN4CCCC4)nn23)c1 [Compound 7-30, N-(2-(pyrrolidin-1-yl)ethyl)-3-(3-(trifluoromethoxy)phenyl)imidazol[1,2-b]pyridazin-6-amine]	9.26	9.14	0.761 µM	
CN1CCC(COc2ccc3ncc(-c4cccc(OC(F)(F)F)c4)n3n2)CC1 [Compound 7-33, 6-((1-methylpiperidin-4-yl)methoxy)-3-(3-(trifluoromethoxy)phenyl)imidazo[1,2-b]pyridazine]	14.4	5.99	0.405 µM and 0.282 µM	
Cc1cc2ncc(-c3cccc(OC(F)(F)F)c3)n2nc1OCC1CCN(C)CC1 [Compound 7-34, 7-methyl-6-((1-methylpiperidin-4-yl)methoxy)-3-(3(trifluoromethoxy)phenyl) imidazo[1,2-b]pyridazine]	7.21	1.73	0.272 µM	
Fc1ccc(-c2ccc3ncc(-c4ccc(F)cc4)n3n2)cc1 [Compound 7-7]	87.2	271		IC50 (Pim-1 kinase; [2]): 9.76 µM
CN(C)c1cccc(-c2cnc3ccc(NCCCCO)nn23)c1 [Compound 7-4, 12-(3-(3-(dimethylamino)phenyl)imidazo[1,2-b]pyridazin-6-ylamino)butan-1-ol]				IC50 (PC-3 Cells; Table IX (results), read-out: IC50 (PC-3)): 54.6 µM; IC50 (Pim-1 kinase; [2]): 1.81 µM; IC50 (K562 Cells; [5]): 13.6 µM
Fc1cccc(-c2ccc3ncc(-c4cccc(F)c4)n3n2)c1 [Compound 7-9]	21.2	6.76		IC50 (Pim-1 kinase; [2]): 86.6 µM
CCN1CCC(CNc2ccc3ncc(-c4cccc(OC(F)(F)F)c4)n3n2)CC1 [Compound 7-39, N-((1-ethylpiperidin-4-yl)methyl)-3-(3-(trifluoromethoxy)phenyl)imidazo[1,2-b]pyridazin-6-amine]	5.82	1.66		
COc1ccc(OC(F)(F)F)cc1-c1cnc2ccc(NCCC3CCN(C)CC3)nn12 [Compound 7-44, 3-(2-methoxy-5-(trifluoromethoxy)phenyl)-N-(2-(1-methylpiperidin-4-yl)ethyl)-imidazo[1,2-b]pyridazin-6-amine]	17.7	5.7		
CC[C@@H](CO)Nc1ccc2ncc(-c3cccc(OC(F)(F)F)c3)n2n1 [Compound 7-32, (S)-2-(3-(3-(trifluoromethoxy)phenyl)imidazo[1,2-b]pyridazin-6-ylamino)butan-1-ol]	29	25.3	0.095 µM	IC50 (Pim-1 kinase; [2]): 1.55 µM; IC50 (K562 Cells; [5]): 20 µM
COc1ccc(OC(F)(F)F)cc1-c1cnc2ccc(NCC3CCN(C)CC3)nn12 [Compound 7-42, 3-(2-methoxy-5-(trifluoromethoxy)phenyl)-N-((1-methylpiperidin-4-yl)methyl)-imidazo[1,2-b]pyridazin-6-amine]	8.96	9.6		
CCC(CO)Nc1ccc2ncc(-c3ccc(NS(C)(=O)=O)cc3)n2n1 (stereo not drawn) [Compound 1-3]				IC50 (PC-3 Cells; [6]): 39 µM; IC50 (Pim-1 kinase; [7]): 5.35 µM; IC50 (K562 Cells; [8]): 80.2 µM
Cc1cc2ncc(-c3cccc(OC(F)(F)F)c3)n2nc1NCC1CCN(C)CC1 [Compound 7-37, 7-Methyl-N-((1-methylpiperidin-4-yl)methyl)-3-(3-(trifluoromethoxy)phenyl)-imidazo[1,2-b]pyridazin-6-amine]	8.95	3.89	0.013 µM	
FC(F)(F)Oc1cccc(-c2ccc3ncc(-c4cccc(OC(F)(F)F)c4)n3n2)c1 [Compound 7-13]	63.2	19.1		
CN1CCC(CCNc2ccc3ncc(-c4cc(OC(F)(F)F)ccc4O)n3n2)CC1 [Compound 7-45, 3-(2-Hydroxyl-5-(trifluoromethoxy)phenyl)-N-(2-(1-methylpiperidin-4-yl)ethyl)-imidazo[1,2-b]pyridazin-6-amine]	52	14.9		
Cc1ccc(S(=O)(=O)Nc2ccc(Nc3ccn4ncc(-c5cccc(N(C)C)c5)c4n3)cc2)cc1 [Compound 3-13]				IC50 (PC-3 Cells; [6]): 12.8 µM; IC50 (Pim-1 kinase; [7]): 52.1 µM; IC50 (K562 Cells; [8]): 29.3 µM
COc1ccc(OC(F)(F)F)cc1-c1cnc2ccc(NCC3CCN(C(C)C)CC3)nn12 [Compound 7-48, N-((1-isopropylpiperidin-4-yl)methyl)-3-(2-methoxy-5-(trifluoromethoxy)phenyl)-imidazo[1,2-b]pyridazin-6-amine]	17.7	5.7		
NS(=O)(=O)c1ccc(CNc2ccc3ncc(-c4ccc(CCC(=O)O)cc4)n3n2)cc1 [Compound 1-1]				IC50 (PC-3 Cells; [6]): > 300 µM; IC50 (Pim-1 kinase; [7]): 4.47 µM; IC50 (K562 Cells; [8]): > 300 µM
O=C(C1CC1)N1CCC(CNc2ccc3ncc(-c4cccc(OC(F)(F)F)c4)n3n2)CC1 [Compound 7-36, Cyclopropyl(4-((3-(3-(trifluoromethoxy)phenyl)imidazo[1,2-b]pyridazin-6-ylamino)methyl)piperidin-1-yl)methanone]	33.3	6.91	0.073 µM	
CCN1CCC(CNc2ccc3ncc(-c4cc(OC(F)(F)F)ccc4O)n3n2)CC1 [Compound 7-47, N-((1-ethylpiperidin-4-yl)methyl)-3-(2-hydroxy-5-(trifluoromethoxy)phenyl)-imidazo[1,2-b]pyridazin-6-amine]	57.4	11.3	0.31 µM	
CCC(CO)Nc1ccc2ncc(-c3ccc(N(C)C)cc3)n2n1 (stereo not drawn) [Compound 7-1]	29.2	67.1		IC50 (PC-3 Cells; [6]): 29.2 µM; IC50 (Pim-1 kinase; [7]): 3.99 µM; IC50 (Pim-1 kinase; [2]): 3.99 µM; IC50 (K562 Cells; [8]): 67.1 µM
CCN1CCC(CNc2ccc3ncc(-c4cc(OC(F)(F)F)ccc4OC)n3n2)CC1 [Compound 7-46, N-((1-ethylpiperidin-4-yl)methyl)-3-(2-methoxy-5-(trifluoromethoxy)phenyl)-imidazol[1,2-b]pyridazin-6-amine]	10.6	5.3		
CC(C)N1CCC(CNc2ccc3ncc(-c4cccc(OC(F)(F)F)c4)n3n2)CC1 [Compound 7-35, N-((1-isopropylpiperidin-4-yl)methyl)-3-(3(trifluoromethoxy)phenyl)imidazo[1,2b]pyridazin-6-amine]	12.8	2.92		
